Earlier results as cited in patent US12668568B2, “Adamantanyl-substituted benzamide compounds and their use as P2X7 receptor antagonists” (The University of Sydney, priority 2018, dated 2026).

conditions: literature log D7.4 values; cited from earlier work

| SMILES | log D7.4 of calibration standards |
| --- | --- |
| CC(C)=O [acetone] | −0.24 |
| Nc1ccccc1 [aniline] | 0.90 |
| c1ccc(N(c2ccccc2)c2ccccc2)cc1 [triphenylamine] | 5.74 |
